Measured values from BindingDB's records for patent US11912668 (Deciphera Pharmaceuticals, 2024).

What was measured:
[1] = biological target: eIF-2-alpha kinase GCN2 (Homo sapiens, UniProt Q9P2K8); assay: Biochemical Assay for GCN2
Experimental: Activity of GCN2 kinase was determined using a TR-FRET kinase activity assay (e.g. Riddle et al. Analytical Biochemistry (2006) 356(1) 108-116). Assays were conducted in 384-well plates (13 μL assay volume) using 2 nM GCN2 (Carna Biosciences), 130 nM GFP-EIf2α (Invitrogen), 0.2 mg/mL E. coli tRNA (sigma) and 1 mM ATP in kinase buffer (Invitrogen). Inhibition of GCN2 was measured by adding serial diluted test compound (final assay concentration of 0.5% DMSO) followed by a 3-hour incubation. Tb-peIF2α (pSer52) antibody (Invitrogen) (2 nM final assay concentration) in kinase buffer containing ETDA (final assay concentration of 20 mM) was added. After a 60 min incubation at room temperature, TR-FRET was monitored using an excitation wavelength of 340 nm and emission wavelengths of 490 nm and 520 nm. The emission ratio (520/490) at each compound concentration of was converted to percent inhibition using controls (i.e. reaction with no test compound and reaction with a known inhibitor) and IC50 values were calculated by fitting a four-parameter sigmoidal curve to the data using Prism (GraphPad software).

[2] = biological target: T1, Eukaryotic translation initiation factor 2-alpha kinase 3 [563-1115] (Homo sapiens, UniProt Q9NZJ5); assay: Biochemical Assay for PERK
T1 construct: 563-1115
T1 sequence (Q9NZJ5 whole entry): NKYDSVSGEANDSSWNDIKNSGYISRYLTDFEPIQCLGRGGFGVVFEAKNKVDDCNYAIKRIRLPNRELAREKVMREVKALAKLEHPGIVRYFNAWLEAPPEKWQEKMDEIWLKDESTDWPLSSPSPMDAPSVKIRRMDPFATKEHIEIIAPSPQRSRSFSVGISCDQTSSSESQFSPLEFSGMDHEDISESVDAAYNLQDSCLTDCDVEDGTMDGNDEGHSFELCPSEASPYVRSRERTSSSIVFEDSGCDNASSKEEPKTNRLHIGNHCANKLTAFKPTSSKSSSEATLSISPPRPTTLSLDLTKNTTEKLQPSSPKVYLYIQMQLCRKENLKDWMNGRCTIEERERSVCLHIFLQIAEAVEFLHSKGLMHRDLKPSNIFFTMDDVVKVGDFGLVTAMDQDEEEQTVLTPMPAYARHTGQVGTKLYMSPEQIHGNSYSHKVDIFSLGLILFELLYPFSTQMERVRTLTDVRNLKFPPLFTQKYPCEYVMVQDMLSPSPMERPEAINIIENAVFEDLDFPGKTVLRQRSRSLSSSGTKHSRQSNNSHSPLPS
Experimental: Activity of PERK kinase was determined spectroscopically using a coupled pyruvate kinase/lactate dehydrogenase assay that continuously monitors the ATP hydrolysis-dependent oxidation of NADH (e.g., Schindler et al. Science (2000) 289: 1938-1942). Assays were conducted in 384-well plates (100 μL final volume) using 10 nM PERK (from Beryllium), 0.25 mg/mL Myelin Basic Protein substrate, 1.5 units pyruvate kinase, 2.1 units lactate dehydrogenase, 1 mM phosphoenol pyruvate, 0.28 mM NADH and 1 mM ATP in assay buffer (100 mM Tris, pH 7.5, 15 mM MgCl2, 0.5 mM DTT, 0.004% (w/v) BSA, and 0.004% Triton X-100). Inhibition of PERK was measured by adding serial diluted test compound (final assay concentration of 1% DMSO). A decrease in absorption at 340 nm was monitored continuously for 6 hours at 30° C. on a multi-mode microplate reader (BioTek). The reaction rate was calculated using the 2-3 h time frame. The reaction rate at each concentration of compound was converted to percent inhibition using controls (i.e. reaction with no test compound and reaction with a known inhibitor) and IC50 values were calculated using software routines in Prism (GraphPad software).

eIF-2-alpha kinase GCN2, sequence (Q9P2K8 whole entry): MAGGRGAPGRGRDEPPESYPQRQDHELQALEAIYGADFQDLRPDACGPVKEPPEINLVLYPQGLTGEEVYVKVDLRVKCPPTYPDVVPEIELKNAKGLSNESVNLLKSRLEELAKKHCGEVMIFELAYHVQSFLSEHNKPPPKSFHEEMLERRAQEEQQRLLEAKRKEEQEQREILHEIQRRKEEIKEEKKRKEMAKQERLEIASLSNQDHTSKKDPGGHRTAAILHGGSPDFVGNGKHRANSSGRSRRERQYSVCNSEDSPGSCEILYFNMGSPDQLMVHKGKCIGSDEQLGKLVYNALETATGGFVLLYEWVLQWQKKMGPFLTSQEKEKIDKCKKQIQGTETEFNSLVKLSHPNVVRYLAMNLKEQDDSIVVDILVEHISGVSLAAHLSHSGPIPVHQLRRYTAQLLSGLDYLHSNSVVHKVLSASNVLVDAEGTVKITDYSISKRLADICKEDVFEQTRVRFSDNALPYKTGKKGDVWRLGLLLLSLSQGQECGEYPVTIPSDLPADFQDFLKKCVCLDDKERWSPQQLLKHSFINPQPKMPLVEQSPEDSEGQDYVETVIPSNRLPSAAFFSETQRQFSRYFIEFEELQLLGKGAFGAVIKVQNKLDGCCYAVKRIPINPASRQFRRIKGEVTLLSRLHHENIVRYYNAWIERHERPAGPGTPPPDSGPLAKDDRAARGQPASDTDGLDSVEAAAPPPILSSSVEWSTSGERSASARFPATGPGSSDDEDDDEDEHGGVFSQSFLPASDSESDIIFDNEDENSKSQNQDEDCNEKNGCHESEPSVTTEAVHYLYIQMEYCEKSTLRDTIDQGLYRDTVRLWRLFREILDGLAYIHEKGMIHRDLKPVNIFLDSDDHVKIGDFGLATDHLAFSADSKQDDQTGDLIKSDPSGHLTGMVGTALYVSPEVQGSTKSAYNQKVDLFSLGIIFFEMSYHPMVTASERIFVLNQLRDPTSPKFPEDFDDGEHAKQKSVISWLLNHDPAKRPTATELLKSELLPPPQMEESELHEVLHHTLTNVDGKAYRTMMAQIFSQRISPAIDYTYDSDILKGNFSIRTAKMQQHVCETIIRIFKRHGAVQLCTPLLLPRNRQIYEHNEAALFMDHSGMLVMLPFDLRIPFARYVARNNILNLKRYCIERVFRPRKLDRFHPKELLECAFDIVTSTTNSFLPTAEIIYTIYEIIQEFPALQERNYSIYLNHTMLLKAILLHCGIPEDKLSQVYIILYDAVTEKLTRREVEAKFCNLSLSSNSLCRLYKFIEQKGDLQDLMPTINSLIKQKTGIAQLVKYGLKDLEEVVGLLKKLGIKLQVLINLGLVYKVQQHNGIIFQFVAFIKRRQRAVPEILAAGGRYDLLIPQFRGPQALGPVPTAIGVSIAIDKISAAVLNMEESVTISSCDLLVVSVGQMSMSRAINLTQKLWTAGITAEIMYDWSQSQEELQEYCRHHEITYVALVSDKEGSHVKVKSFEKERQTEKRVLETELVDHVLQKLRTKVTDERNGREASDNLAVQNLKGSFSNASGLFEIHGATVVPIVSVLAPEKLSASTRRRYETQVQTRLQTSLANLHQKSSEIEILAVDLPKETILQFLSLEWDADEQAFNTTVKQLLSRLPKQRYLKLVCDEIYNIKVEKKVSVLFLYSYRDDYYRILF

SMILES	IC50 [1]	IC50 [2]
CNc1ncc2cc(-c3cc(F)cc(NS(=O)(=O)c4cc(Cl)cnc4OC)c3)c(C)nc2n1 [US11912668, Example 65]	< 0.1 µM	–
Cc1nc2cc(N)ncc2cc1-c1cccc(NS(=O)(=O)c2cc(Cl)cc(CO)c2Cl)c1F [US11912668, Example 174]	< 0.1 µM	< 0.1 µM
CNc1cc2nc(N)c(-c3cccc(NS(=O)(=O)c4cc(Cl)cc(CO)c4Cl)c3F)cc2cn1 [US11912668, Example 171]	< 0.1 µM	< 0.1 µM
